The values below are quoted from earlier work in patent US20230131804A1, “FARNESOID X RECEPTOR AGONISTS FOR THE TREATMENT OF DISEASE” (Metacrine, Inc., priority 2020, published 2023).

For this series the following is noted: published clinical studies, higher administered doses; cited from earlier work.

“Also recorded” adds a separate entry of the source.

Take `CC[C@H]1[C@@H](O)[C@@H]2[C@H](CC[C@]3(C)[C@@H]([C@H](C)CCC(=O)O)CC[C@@H]23)[C@@]2(C)CC[C@@H](O)C[C@@H]12` [OCA, Obeticholic acid]: the adverse side effects entry is “pruritis, increased LDL cholesterol and liver toxicity; also recorded: adverse effects of increased LDL cholesterol and liver toxicity”.
